Data reported in ChEMBL document CHEMBL5465560, “Selectivity Literature for EUbOPEN Chemogenomic Library” (2024).
Each block holds one compound with its values, some of them ahead of it.

Legend:
[1] = molecular target: Phosphatidylinositol 4-phosphate 5-kinase type-1 alpha (Homo sapiens) (UniProt Q99755); assay: Selectivity interaction (KinomeScan (DiscoverX)) EUB0001049a PIP5K1A; conditions: at 1 µM
[2] = molecular target: Serine/threonine-protein kinase 32B (Homo sapiens) (UniProt Q9NY57); assay: Selectivity interaction (KinomeScan (DiscoverX)) EUB0001049a STK32B; conditions: at 1 µM
[3] = molecular target: Ribosomal protein S6 kinase alpha-2 (Homo sapiens) (UniProt Q15349); assay: Selectivity interaction (ActivX KiNativ screen (kinase selectivity in THP-1 cell lysates)) EUB0000639a RPS6KA2; format: subcellular; conditions: lysate, at 0.2 µM
[4] = tested on: Phosphatidylinositol 4,5-bisphosphate 3-kinase catalytic subunit alpha isoform (Homo sapiens), P42336 [E545K]; conditions: at 10 µM
[5] = tested on: Phosphatidylinositol 4,5-bisphosphate 3-kinase catalytic subunit alpha isoform (Homo sapiens), P42336 [E545A]; conditions: at 10 µM
[6] = molecular target: T1, Cytoplasmic tyrosine-protein kinase BMX (Homo sapiens) (UniProt P51813); assay: Selectivity interaction (KinomeScan (DiscoverX)) EUB0001619a BMX; conditions: at 1 µM
T1 sequence (whole entry): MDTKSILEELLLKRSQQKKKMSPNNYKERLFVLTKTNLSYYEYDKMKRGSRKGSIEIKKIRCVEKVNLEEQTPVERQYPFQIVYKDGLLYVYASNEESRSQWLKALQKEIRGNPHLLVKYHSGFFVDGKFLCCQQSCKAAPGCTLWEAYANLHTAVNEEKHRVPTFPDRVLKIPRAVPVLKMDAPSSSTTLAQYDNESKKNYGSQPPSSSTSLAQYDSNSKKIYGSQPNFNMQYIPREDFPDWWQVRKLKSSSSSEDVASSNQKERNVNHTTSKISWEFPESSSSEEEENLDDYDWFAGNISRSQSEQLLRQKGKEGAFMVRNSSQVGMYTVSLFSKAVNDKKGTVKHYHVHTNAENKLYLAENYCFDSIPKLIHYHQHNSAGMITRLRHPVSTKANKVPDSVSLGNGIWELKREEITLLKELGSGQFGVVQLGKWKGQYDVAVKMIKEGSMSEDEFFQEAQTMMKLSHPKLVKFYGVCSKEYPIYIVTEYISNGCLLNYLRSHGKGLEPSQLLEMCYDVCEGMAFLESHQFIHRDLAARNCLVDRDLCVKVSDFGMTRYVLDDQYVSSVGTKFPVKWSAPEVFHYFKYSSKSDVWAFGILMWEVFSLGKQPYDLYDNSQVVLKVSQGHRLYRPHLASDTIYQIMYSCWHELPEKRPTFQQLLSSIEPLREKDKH

[7] = molecular target: T2, Mitogen-activated protein kinase kinase kinase 7 (Homo sapiens) (UniProt O43318); assay: Selectivity interaction (KinomeScan (DiscoverX)) EUB0001619a MAP3K7; conditions: at 1 µM
T2 sequence (whole entry): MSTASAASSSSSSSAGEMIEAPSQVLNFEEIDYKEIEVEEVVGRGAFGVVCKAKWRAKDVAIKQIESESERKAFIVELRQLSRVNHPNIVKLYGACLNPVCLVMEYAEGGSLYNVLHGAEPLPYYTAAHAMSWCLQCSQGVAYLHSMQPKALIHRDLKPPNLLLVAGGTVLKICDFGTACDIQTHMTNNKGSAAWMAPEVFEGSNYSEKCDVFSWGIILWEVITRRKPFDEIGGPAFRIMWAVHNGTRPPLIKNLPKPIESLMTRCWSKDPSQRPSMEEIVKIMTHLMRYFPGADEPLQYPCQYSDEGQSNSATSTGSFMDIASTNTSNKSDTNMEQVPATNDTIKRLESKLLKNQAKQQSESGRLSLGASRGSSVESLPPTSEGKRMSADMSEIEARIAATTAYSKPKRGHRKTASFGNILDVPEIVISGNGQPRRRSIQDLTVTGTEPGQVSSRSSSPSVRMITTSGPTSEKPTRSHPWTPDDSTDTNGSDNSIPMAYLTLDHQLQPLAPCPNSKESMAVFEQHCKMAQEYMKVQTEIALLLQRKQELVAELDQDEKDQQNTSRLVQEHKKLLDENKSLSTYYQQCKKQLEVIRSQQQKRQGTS

[8] = molecular target: T3, Serine/threonine-protein kinase RIO1 (Homo sapiens) (UniProt Q9BRS2); assay: Selectivity interaction (Kinase panel (DSF assay)) EUB0001559a RIOK1
T3 sequence (whole entry): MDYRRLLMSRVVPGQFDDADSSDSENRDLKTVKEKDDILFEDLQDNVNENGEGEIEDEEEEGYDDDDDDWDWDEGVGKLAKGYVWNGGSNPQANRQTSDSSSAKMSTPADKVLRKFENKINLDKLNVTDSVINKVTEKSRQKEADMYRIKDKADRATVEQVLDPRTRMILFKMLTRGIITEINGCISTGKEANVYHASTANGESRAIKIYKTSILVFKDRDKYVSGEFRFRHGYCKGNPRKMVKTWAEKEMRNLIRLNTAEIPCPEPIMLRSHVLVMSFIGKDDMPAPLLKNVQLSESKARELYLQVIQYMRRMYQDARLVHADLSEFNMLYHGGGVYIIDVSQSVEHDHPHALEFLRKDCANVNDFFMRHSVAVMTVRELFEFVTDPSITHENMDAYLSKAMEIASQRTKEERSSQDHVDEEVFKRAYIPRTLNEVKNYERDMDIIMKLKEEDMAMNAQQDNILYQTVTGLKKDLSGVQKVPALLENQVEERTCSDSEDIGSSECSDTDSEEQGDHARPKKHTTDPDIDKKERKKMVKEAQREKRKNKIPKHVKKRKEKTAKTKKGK

[9] = molecular target: Fibroblast growth factor receptor 1 (Homo sapiens, UniProt P11362); assay: Selectivity interaction (KinomeScan (DiscoverX)) EUB0000607a FGFR1; conditions: at 10 µM
Sequence of Fibroblast growth factor receptor 1 (P11362 22-822 limits assumed): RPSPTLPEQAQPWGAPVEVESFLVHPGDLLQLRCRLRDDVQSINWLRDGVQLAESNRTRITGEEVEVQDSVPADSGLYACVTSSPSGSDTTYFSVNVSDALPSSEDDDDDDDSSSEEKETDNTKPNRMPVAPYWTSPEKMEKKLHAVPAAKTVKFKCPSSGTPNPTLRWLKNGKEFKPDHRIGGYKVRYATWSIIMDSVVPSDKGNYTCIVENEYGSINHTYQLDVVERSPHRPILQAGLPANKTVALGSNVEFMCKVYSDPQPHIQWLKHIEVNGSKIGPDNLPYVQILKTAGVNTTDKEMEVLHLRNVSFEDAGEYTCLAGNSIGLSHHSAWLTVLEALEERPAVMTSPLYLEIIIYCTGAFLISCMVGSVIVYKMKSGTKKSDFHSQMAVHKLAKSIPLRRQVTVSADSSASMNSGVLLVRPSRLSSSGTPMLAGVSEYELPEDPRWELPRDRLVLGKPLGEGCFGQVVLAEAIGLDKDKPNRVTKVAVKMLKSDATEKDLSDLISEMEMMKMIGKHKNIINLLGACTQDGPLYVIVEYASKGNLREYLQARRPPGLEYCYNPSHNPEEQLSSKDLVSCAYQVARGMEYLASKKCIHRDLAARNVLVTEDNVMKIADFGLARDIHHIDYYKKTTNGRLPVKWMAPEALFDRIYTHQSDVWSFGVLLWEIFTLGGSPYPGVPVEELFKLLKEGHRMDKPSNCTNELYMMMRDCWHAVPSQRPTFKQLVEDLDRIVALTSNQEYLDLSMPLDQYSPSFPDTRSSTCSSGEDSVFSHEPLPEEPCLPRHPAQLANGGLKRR

Sequence of Ribosomal protein S6 kinase alpha-2 (Homo sapiens) (Q15349 whole entry, canonical isoform): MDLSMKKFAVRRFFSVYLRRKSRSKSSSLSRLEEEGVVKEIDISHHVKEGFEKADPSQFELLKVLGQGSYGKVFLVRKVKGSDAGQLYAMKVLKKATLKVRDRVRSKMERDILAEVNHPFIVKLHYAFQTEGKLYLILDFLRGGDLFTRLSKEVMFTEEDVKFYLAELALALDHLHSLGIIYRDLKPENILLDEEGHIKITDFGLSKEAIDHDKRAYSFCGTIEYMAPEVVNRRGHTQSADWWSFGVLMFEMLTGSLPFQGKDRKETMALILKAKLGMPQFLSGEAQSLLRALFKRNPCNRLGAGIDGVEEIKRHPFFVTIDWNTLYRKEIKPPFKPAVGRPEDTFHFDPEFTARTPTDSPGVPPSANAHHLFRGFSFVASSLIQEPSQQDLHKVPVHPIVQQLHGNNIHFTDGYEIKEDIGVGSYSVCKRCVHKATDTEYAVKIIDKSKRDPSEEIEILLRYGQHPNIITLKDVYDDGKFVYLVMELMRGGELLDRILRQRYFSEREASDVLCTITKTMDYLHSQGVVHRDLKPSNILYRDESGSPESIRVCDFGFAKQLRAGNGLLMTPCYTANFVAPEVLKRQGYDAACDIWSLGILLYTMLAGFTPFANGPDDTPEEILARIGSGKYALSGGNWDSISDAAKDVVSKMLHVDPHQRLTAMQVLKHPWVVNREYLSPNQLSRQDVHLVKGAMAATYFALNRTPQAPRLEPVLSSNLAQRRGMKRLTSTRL
Sequence of Serine/threonine-protein kinase 32B (Homo sapiens) (Q9NY57 whole entry): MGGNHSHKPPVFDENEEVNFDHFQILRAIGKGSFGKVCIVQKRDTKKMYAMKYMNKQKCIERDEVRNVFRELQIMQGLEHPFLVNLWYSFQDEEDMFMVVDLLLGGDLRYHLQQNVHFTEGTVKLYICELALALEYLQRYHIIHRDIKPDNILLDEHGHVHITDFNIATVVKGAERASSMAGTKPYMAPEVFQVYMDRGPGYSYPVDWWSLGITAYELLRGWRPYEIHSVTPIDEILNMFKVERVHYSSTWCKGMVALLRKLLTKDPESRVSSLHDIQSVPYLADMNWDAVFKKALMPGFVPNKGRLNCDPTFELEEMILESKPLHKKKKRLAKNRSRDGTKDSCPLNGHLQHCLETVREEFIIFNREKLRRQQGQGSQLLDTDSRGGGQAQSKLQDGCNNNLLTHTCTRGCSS
Sequence of Phosphatidylinositol 4,5-bisphosphate 3-kinase catalytic subunit alpha isoform (Homo sapiens), P42336 [E545K] (P42336 whole entry E545K, canonical isoform): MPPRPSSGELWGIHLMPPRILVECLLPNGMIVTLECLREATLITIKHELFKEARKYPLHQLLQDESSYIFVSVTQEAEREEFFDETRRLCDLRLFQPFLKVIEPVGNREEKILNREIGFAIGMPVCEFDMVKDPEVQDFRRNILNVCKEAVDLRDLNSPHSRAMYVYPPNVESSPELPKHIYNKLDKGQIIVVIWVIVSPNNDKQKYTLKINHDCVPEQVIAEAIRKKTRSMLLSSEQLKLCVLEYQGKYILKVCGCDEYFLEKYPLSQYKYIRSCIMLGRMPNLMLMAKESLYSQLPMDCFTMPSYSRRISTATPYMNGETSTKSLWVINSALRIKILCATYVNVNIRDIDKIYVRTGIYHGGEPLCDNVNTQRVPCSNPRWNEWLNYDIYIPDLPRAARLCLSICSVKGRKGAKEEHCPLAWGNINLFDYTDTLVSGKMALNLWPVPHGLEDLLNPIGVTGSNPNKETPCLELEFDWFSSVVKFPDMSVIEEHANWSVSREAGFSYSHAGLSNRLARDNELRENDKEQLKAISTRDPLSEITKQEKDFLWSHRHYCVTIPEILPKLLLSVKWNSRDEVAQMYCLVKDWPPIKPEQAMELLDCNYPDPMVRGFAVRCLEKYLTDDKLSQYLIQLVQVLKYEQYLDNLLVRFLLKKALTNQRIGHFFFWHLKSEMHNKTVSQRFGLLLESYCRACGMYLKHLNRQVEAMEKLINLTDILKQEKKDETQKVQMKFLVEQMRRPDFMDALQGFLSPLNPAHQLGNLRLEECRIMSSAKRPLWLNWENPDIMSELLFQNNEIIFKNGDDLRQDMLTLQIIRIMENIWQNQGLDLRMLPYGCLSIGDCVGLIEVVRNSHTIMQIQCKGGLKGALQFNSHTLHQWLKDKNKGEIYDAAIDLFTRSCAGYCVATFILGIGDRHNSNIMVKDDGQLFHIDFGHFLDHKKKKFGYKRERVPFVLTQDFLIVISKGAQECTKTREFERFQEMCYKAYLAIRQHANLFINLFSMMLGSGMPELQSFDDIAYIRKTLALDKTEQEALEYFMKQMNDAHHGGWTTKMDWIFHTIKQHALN
Sequence of Phosphatidylinositol 4-phosphate 5-kinase type-1 alpha (Homo sapiens) (Q99755 whole entry): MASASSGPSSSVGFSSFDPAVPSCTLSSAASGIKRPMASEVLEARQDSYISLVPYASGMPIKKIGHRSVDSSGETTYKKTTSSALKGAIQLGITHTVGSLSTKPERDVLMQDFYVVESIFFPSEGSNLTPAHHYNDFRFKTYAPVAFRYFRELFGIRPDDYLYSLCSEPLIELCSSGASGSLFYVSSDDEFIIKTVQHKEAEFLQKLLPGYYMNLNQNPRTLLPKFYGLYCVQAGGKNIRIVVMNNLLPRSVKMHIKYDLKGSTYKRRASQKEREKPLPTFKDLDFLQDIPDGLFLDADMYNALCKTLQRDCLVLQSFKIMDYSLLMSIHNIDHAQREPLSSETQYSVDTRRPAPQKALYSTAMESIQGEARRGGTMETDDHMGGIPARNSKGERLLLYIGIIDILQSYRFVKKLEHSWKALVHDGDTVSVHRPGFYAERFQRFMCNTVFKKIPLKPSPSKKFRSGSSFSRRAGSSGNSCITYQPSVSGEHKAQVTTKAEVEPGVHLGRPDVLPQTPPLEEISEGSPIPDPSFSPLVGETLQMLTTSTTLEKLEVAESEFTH
Sequence of Phosphatidylinositol 4,5-bisphosphate 3-kinase catalytic subunit alpha isoform (Homo sapiens), P42336 [E545A] (P42336 whole entry E545A, canonical isoform): as the sequence (P42336 whole entry E545K, canonical isoform) above, with K545A counted along it

SMILES: COc1cc(Nc2nc(C)cc(-c3cnn4nc(OC)ccc34)n2)cc(C(F)(F)F)c1
- % of control [1]: 81%
- % of control [2]: 100%

- % of inhibition [3]: 2.6%
SMILES: CC[C@@H]1[C@H](F)C(=O)N[C@@H]1COc1nccc2cc(C(N)=O)c(OC)cc12 [ZIMLOVISERTIB]

SMILES: COCC(=O)NC/C=C/c1ccc2ncnc(Nc3ccc(Oc4ccc(C)nc4)c(C)c3)c2c1 [CP-724714]
- % of control [4]: 100%
- % of control [5]: 33%

SMILES: N#Cc1cccc(-c2c[nH]c3ncnc(N4CCOCC4)c23)c1
- % of control [6]: 97%
- % of control [7]: 55%

- dTM [8]: -0.2 K
SMILES: CN(C(=O)c1cnn2cccnc12)c1cc2c(cc1N1CCOCC1)C(=O)N(C[C@@H](F)C(C)(C)O)C2

SMILES: CNC(=O)Nc1ccc(-c2nc(N3CC4CCC(C3)O4)c3cnn(C4CCC5(CC4)OCCO5)c3n2)cc1
- % of control [9]: 100%
